Assay results published in ChEMBL document CHEMBL3797164, “Transfer of SAR information from hypotensive indazole to indole derivatives acting at α-adrenergic receptors: In vitro and in vivo studies” (Eur J Med Chem, 2016).

Tests used:
Rattus norvegicus [1] = assay: Antihypertensive activity in anesthetized Wistar rat assessed as change in heart rate at 0.1 mg/kg, iv administered as bolus dose after 15 mins (reference value: -6.0 […]); format: functional
Rattus norvegicus [2] = assay: Antihypertensive activity in anesthetized Wistar rat assessed as change in mean arterial blood pressure at 0.1 mg/kg, iv administered as bolus dose after 2 mins; format: functional
Rattus norvegicus [3] = assay: Antihypertensive activity in anesthetized Wistar rat assessed as change in mean arterial blood pressure at 0.1 mg/kg, iv administered as bolus dose after 15 mins (reference value: -0.8 mmHg); format: functional
Rattus norvegicus [4] = assay: Antihypertensive activity in anesthetized Wistar rat assessed as change in heart rate at 0.1 mg/kg, iv administered as bolus dose after 30 mins (reference value: -8.6 […]); format: functional
Rattus norvegicus [5] = assay: Antihypertensive activity in anesthetized Wistar rat assessed as change in mean arterial blood pressure at 0.1 mg/kg, iv administered as bolus dose after 5 mins (reference value: 0.4 mmHg); format: functional
Rattus norvegicus [6] = assay: Antihypertensive activity in anesthetized Wistar rat assessed as change in heart rate at 0.1 mg/kg, iv administered as bolus dose after 60 mins (reference value: -6.2 […]); format: functional
Rattus norvegicus [7] = assay: Antihypertensive activity in anesthetized Wistar rat assessed as change in mean arterial blood pressure at 0.1 mg/kg, iv administered as bolus dose after 30 mins (reference value: -1.3 mmHg); format: functional
Rattus norvegicus [8] = assay: Antihypertensive activity in anesthetized Wistar rat assessed as change in mean arterial blood pressure at 0.1 mg/kg, iv administered as bolus dose after 60 mins (reference value: -3.5 mmHg); format: functional
[9] = Displacement of [3H]2BFI from Imidazoline receptor 2 in Sprague-Dawley rat brain P2 membrans after […] by liquid scintillation counting
[10] = biological target: T1, Adrenergic receptor alpha-1 (Rattus norvegicus, UniProt P15823+P23944+P43140); assay: Displacement of [3H]prazosine from Alpha-1 adrenergic receptor in Sprague-Dawley rat brain P2 membranes after […] by liquid scintillation counting
T1 sequence (P15823 whole entry): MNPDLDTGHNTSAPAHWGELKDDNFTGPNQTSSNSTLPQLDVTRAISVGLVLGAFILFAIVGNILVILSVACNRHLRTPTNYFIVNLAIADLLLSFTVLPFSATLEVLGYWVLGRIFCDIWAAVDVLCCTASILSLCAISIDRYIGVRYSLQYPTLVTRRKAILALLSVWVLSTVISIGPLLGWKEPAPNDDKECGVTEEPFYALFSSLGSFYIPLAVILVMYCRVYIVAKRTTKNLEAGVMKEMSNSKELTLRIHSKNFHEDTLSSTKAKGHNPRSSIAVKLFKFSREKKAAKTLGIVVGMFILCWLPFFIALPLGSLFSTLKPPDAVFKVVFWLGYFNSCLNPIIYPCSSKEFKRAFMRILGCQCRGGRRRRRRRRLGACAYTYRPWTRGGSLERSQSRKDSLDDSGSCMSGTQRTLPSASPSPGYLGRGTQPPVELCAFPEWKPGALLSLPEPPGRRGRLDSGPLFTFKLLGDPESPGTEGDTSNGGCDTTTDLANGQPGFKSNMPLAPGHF
T1 sequence (P23944 whole entry): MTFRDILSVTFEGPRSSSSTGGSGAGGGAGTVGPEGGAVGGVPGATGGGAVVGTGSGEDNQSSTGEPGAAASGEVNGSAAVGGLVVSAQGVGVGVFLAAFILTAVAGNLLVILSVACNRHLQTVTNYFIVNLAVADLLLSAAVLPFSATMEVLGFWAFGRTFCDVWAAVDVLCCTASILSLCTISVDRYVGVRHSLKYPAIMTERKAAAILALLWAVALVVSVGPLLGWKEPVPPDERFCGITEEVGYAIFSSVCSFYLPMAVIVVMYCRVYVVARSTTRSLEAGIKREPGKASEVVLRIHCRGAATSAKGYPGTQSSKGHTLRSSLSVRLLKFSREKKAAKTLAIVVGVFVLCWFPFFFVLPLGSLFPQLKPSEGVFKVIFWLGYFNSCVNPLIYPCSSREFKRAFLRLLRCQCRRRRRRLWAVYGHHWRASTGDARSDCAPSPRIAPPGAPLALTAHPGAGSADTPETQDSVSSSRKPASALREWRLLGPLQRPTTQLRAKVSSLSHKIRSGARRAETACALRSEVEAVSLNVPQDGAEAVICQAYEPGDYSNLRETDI
T1 sequence (P43140 whole entry): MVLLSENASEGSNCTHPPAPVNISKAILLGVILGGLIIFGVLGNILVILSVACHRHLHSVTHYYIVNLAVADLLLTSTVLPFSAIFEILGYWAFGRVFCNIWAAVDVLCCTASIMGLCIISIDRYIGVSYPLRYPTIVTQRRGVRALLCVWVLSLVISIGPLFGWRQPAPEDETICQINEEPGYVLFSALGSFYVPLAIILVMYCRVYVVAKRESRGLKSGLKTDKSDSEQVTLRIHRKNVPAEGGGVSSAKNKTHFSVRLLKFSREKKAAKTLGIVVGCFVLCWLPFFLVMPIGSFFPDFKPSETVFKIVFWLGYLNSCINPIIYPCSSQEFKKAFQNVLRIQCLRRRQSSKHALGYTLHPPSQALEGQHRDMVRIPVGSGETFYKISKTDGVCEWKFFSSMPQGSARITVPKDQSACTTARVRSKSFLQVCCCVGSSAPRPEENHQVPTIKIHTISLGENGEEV

Br.Cc1cccc2ccn(CC3=NCCN3)c12
Activity (Rattus norvegicus [1]): -107.5 bpm | Activity (Rattus norvegicus [2]): 13.4 mmHg | Activity (Rattus norvegicus [3]): -39.2 mmHg | Activity (Rattus norvegicus [4]): -111.7 bpm | Activity (Rattus norvegicus [5]): -4.2 mmHg | Activity (Rattus norvegicus [6]): -87.7 bpm | Activity (Rattus norvegicus [7]): -46.5 mmHg | Activity (Rattus norvegicus [8]): -40.9 mmHg | Ki [9]: 1160 nM | Ki [10]: 24.97 nM

Cl.c1ccc2c(c1)ccn2CC1=NCCN1
Activity (Rattus norvegicus [1]): -115.2 bpm | Activity (Rattus norvegicus [2]): 34.1 mmHg | Activity (Rattus norvegicus [3]): 6.9 mmHg | Activity (Rattus norvegicus [4]): -105.3 bpm | Activity (Rattus norvegicus [5]): 33.7 mmHg | Activity (Rattus norvegicus [6]): -75.1 bpm | Activity (Rattus norvegicus [7]): -27.9 mmHg | Activity (Rattus norvegicus [8]): -38.5 mmHg | Ki [9]: 197 nM | Ki [10]: 61.4 nM

Cl.Clc1cccc2ccn(CC3=NCCN3)c12
Activity (Rattus norvegicus [1]): -130.7 bpm | Activity (Rattus norvegicus [2]): 15.2 mmHg | Activity (Rattus norvegicus [3]): -36 mmHg | Activity (Rattus norvegicus [4]): -125.4 bpm | Activity (Rattus norvegicus [5]): 7.4 mmHg | Activity (Rattus norvegicus [6]): -129.4 bpm | Activity (Rattus norvegicus [7]): -56.1 mmHg | Activity (Rattus norvegicus [8]): -61.2 mmHg | Ki [9]: 71.1 nM | Ki [10]: 6.82 nM
